Results on one compound are retold here after patent publication US8815935B2, “Inhibitors of protein prenyltransferases” (The Regents of the University of California, priority 2008, dated 2014).

In one assay the test system is Aspc-1. As to the kind of experiment: Aspc-1 cell growth inhibition. It counts as cell-based, human. The conditions noted are these: Homo sapiens, ASPC1, 144 h; 6 days, CCK-8, vs DMSO; read-out: IC50, AsPc-1 (Pancreas). The protocol:
In FIG. 9-24 in vitro IC50 values for the GGTase I activity are reported. In Tables 7-15 in cell GI50 values for the growth inhibition of a variety of cancer cell lines (e.g., Jurkat, K562, MDA-MB-231, BT474, MCF7, MiaPaCa2, Aspc-1, Panc-1, Capan-2, CFpac-1, and MCF10a) are reported.
Cell viability was determined by Cell Counting Kit-8 (CCK-8, Dojindo, Kumamoto, Japan) as described previously (31). Cell viability was calculated relative to the DMSO control. Cell cycle profile was analyzed by flow cytometry as described previously (32).

The test system of another assay is p21CIP1/WAF1 promoter. The experiment in a line: p21 promoter luciferase reporter assay in NIH3T3 cells. The class given is cell-based. Particulars: NIH3T3, 48 hours, dose dependent. Here is the method:
For the p21^WAF1/CIP1 promoter luciferase assay, NIH3T3 cells were transfected with p21^WAF1/CIP1 promoter-Luc or vector plasmids (33) (both plasmids are provided by Dr. Genhong Cheng). Cells were treated with GGTI compounds. Promega luciferase assay kit was used according to the manufacturer's protocol.
Another mechanism through which GGTI can effect cell cycle progression is to inhibit RhoA which negatively regulates expression of a Cdk inhibitor p21^CIP1/WAF1. To investigate whether the GGTI compounds described herein can induce p21^CIP1/WAF1 expression, luciferase transcriptional activation from the p21^CIP1/WAF1 promoter (33) was measured. Transient expression systems with NIH3T3 cells were used to examine the ability of P61-A6 to induce p21^CIP1/WAF1-luciferase expression. P61-A6 induced significant (4-fold) inductions of luciferase activity versus DMSO in a dose dependence manner (FIG. 37C).

For the compound `Cc1ccccc1S(=O)(=O)N1C(c2ccc(Cl)cc2)C(C(=O)NC(Cc2ccccc2)C(N)=O)=CC1C(C)(C)C` (centres unmarked) [P61-A6], the IC50 in the assay on Aspc-1 is 11.7 µM. The “induction of p21CIP1/WAF1-luciferase activity versus DMSO” value with p21CIP1/WAF1 promoter was determined as 4 fold.
